PMC13233288, “Spider venom peptides Ht1a and Gg1a are toxic to honeybee parasite Varroa destructor by topical application” (npj Drug Discovery, 2026)
Entries after “also recorded” stand apart in the source; their conditions may differ. No end group written: not given here.

Experiments:
[1] = system: hα3β2/4 nicotinic acetylcholine receptor (nAchR); assay: FLIPR Ca2+ fluorescence, nicotine-stimulated SH-SY5Y cells; assay type: cell-based, human; details: 10 µM, added 5 min prior to nicotine (30 µM)
Protocol: (§1) To further test the selectivity of sHt1a and sGg1a, we examined their activity on hNaV1.2/NaV1.7 and hCaV2.2 channels, as well as the hα3β2/4 nicotinic acetylcholine receptor (nAchR), that are endogenously expressed in the neuroblastoma cell line SH-SY5Y using a high-throughput fluorescent assay as previously described. In brief, SH-SY5Y cells were seeded at a density of 40,000 cells/well in black-walled imaging plates (Corning, Lowell, MA, USA), then incubated for 48 h at 37 °C in a 5% humidified CO2 incubator. On the day of the assay, cells were loaded with Calcium 4 No-wash dye (Molecular Devices) by reconstituting the lyophilised dye in physiological salt solution (PSS in mM: 140 NaCl, 11.5 glucose, 5.9 KCl, 1.4 MgCl2, 1.2 NaH2PO4, 5 NaHCO3, 1.8 CaCl2, 10 HEPES, pH 7.4). Cells were incubated with the dye for 30 min at 37 °C in a 5% humidified CO2 incubator. Gg1a and Ht1a (10 µM) were added 5 min prior to stimulation with either veratridine (50 µM, hNaV1.2/NaV1.7 activator), nicotine (30 µM, hα3β2/4 nAchR activator) or KCl/CaCl2 (90 mM/5 mM, CaV1.3/2.2 activator) Fluorescent responses were recorded using a FLIPR^Penta fluorescent plate reader (Molecular Devices) with excitation at 470–495 nm and emission at 515–575 nm.

V. destructor mites [2] = assay: Topical application of synthetic peptides and oxalic acid to V. destructor mites; assay type: in vivo, Varroa destructor; details: 0.48 μg/mite in 0.5% Silwet (v/v); for earliest onset of mortality: 2-hourly recording between 0 and 48 h; for survival/mortality of V. destructor: n = 5 mites per group, up to 48 h, vs 0.5% Silwet control, two-way ANOVA, Dunnett
Protocol: An outline of the project discovery pipeline is presented in Supplementary Fig. 1. To identify varroacidal venom peptides, we screened venoms for activity against V. destructor by topical application. Topical tests were performed in several stages. First, whole venom was tested to determine mortality for V. destructor. Hit venoms were then subjected to several fractionation steps to isolate the active compounds. For the initial venom screen, a panel of 50 arthropod venoms (Table 1) were topically applied to V. destructor mites. Venoms were dissolved in 90% acetonitrile (v/v), and a 10 μg venom aliquot was applied per mite (n = 5 mites per venom). The dorsal plate of V. destructor mites (average mass 0.38 mg) was fixed to adhesive tape (ScotchTM 666 3 M; 19 × 32.9 mm, double sided) on microscope slides (ground edges 90° frosted end, 76 × 26 mm). A Nanoject II (Automatic Injector with Glass Capillaries, Drummond Cat.No. 3-000-205 A) was used for topical application of venom and control (90% acetonitrile) solutions. To accelerate solvent evaporation, the total volume of 483 nL was applied in seven aliquots of 69 nL each to the ventral plate of the mites between the posterior pair of legs. Each drop was allowed to dry before applying the next one, with the entire application procedure taking up to 1 h. Mite mortality was determined at various time intervals up to 48 h after the treatment using an Olympus stereomicroscope (SZX10/SZX2 Series). Initially, each mite was examined for movements of the legs, and immobile mites were stimulated with the tip of a wooden toothpick. Detection of static electricity by the mites, a few millimetres before the actual contact with the toothpick, was usually sufficient to trigger movement in mites that were still alive. […] At the later stage of the project, the slides with mites were placed into a self-constructed automated video monitoring system (using a USB camera) that employs an algorithm in OpenCV to subtract images from subsequent frames enabling the detection of changes in pixel intensity due to movements, for example of the extremities. Leg movements were stimulated with an air current applied over the mites at the time of image acquisition to determine mite mortality. The percentage of mite mortality for each venom was calculated at 2, 6 and 24 h, and adjusted by correcting for the mortality of the corresponding control group receiving only 90% acetonitrile.
The same procedure initially used for identifying varroacidal venoms was used for testing the topical activity of sHt1a and sGg1a. The peptides were dissolved in 0.5% Silwet L-77 (v/v), a silicone-based surfactant that is commonly used as a spreading agent for foliar sprays. 0.48 μg of peptide was topically applied to each mite, with n = 5 mites per treatment group. The activity of the sHt1a was confirmed using three cohorts of n = 5 mites, whereas the activity of sGg1a was confirmed using four cohorts of n = 5 mites. As a negative control, an equal volume of 0.5% Silwet (v/v) was topically applied (four cohorts of n = 5 mites), and 3% oxalic acid, a known varroacide used in commercial products[10] was used as positive control (eight cohorts of n = 5 mites). Mite mortality was recorded at 2-hourly intervals between 0 and 48 h after the treatment. For statistical analysis, mite survival data were plotted in Prism 10.0 (GraphPad Software, CA, USA), then a two-way ANOVA followed by Dunnett’s multiple comparisons test was performed, comparing the peptide and oxalic acid treatment against the respective 0.5% Silwet (v/v) control group data.

V. destructor mites [3] = assay: Topical varroa assay of venom fractions / purified native peptides; assay type: in vivo, Varroa destructor; details: native peptide / HPLC fraction; Ht1a three cohorts of 5 mites, Gg1a two cohorts of 5 mites
Protocol: An outline of the project discovery pipeline is presented in Supplementary Fig. 1. To identify varroacidal venom peptides, we screened venoms for activity against V. destructor by topical application. Topical tests were performed in several stages. First, whole venom was tested to determine mortality for V. destructor. Hit venoms were then subjected to several fractionation steps to isolate the active compounds. For the initial venom screen, a panel of 50 arthropod venoms (Table 1) were topically applied to V. destructor mites. Venoms were dissolved in 90% acetonitrile (v/v), and a 10 μg venom aliquot was applied per mite (n = 5 mites per venom). The dorsal plate of V. destructor mites (average mass 0.38 mg) was fixed to adhesive tape (ScotchTM 666 3 M; 19 × 32.9 mm, double sided) on microscope slides (ground edges 90° frosted end, 76 × 26 mm). A Nanoject II (Automatic Injector with Glass Capillaries, Drummond Cat.No. 3-000-205 A) was used for topical application of venom and control (90% acetonitrile) solutions. […] Mite mortality was determined at various time intervals up to 48 h after the treatment using an Olympus stereomicroscope (SZX10/SZX2 Series). […] The percentage of mite mortality for each venom was calculated at 2, 6 and 24 h, and adjusted by correcting for the mortality of the corresponding control group receiving only 90% acetonitrile. […]

hCaV2.2 = assay: FLIPR Ca2+ fluorescence, KCl/CaCl2-stimulated SH-SY5Y cells; assay type: cell-based, human; details: 10 µM, added 5 min prior to KCl/CaCl2 (90 mM/5 mM)
Protocol: as §1

Substance | inhibition of nicotine-mediated Ca2+ influx (α3 nAChRs) [1] | inhibition of nicotine-mediated Ca2+ influx (α3 nAChRs) ([1]; listed as sHt1a) | earliest onset of mortality (V. destructor mites [2]) [h] | survival/mortality of V. destructor (V. destructor mites [2]) | survival/mortality of V. destructor (V. destructor mites [2]; listed as sHt1a) | topical varroacidal activity (V. destructor mites [3]) | effect on CaV2.2 (hCaV2.2) | effect on CaV2.2 (hCaV2.2; listed as sHt1a) | survival/mortality of V. destructor (V. destructor mites [2]; listed as sGg1a) | effect on CaV2.2 (hCaV2.2; listed as sGg1a)
KYCAPRKAVCNTPADCCDKSSRCAYPNYGLGYYLDSEFFGKRKICSWRL (also: bicyclic or more (positions not given here)) [Ht1a, μ-gradutoxin-Ht1a] | partially blocked | partial inhibition | 34 | induced topical mortality; also recorded: reduced varroa mite but not honeybee survival; also recorded: lethal to varroa mites | significantly reduced the survival; also recorded: significantly reduced V. destructor survival | contained the varroacidal activity; also recorded: confirmed | inactive | did not significantly affect |  | 
U1-macrothelitoxin-Gg1a | inactive |  | 16 | induced topical mortality; also recorded: reduced varroa mite but not honeybee survival; also recorded: lethal to varroa mites |  | topical varroacidal activity; also recorded: confirmed | inactive |  | significantly reduced the survival; also recorded: significantly reduced V. destructor survival | did not significantly affect
